Tested on: bronchospasm
Test: inhibition of antigen-induced bronchospasm (Br Sp), passively sensitized guinea pigs, Konzett and Rossler method as modified by Collier
Type: in vivo, guinea pig
Conditions: 5 minutes before antigen, 3 minutes after antigen, vs control group
Description: In animals narcotized with 40 mg. sodium pentobarbital/kg. body weight, a Y cannula is introduced into the trachea and a venous cannula is introduced in the jugular vein. A cannula introduced in the carotid artery leads to a measurement chamber (Statham, P 23 Db), with which the arterial pressure is recorded via a direct-current voltage potential measuring bridge. Using a respiratory pump, rats are given an air volume, depending upon the size of the animal, of 1 to 2 ml. 64 times and guinea pigs of 7 to 15 ml. 72 times per minute. […] Upon the appearance of a bronchospasm, initiated by the intravenous administration of the antigen, in the case of the respiratory volume remaining the same, all of the supplied volume of air can no longer flow into the lungs and part of it flows off through a side arm via a valve. The method developed by the firm Basile differs from the method originally described by Konzett and Rossler in that this air volume is measured indirectly via the rate of flow with the help of a thermoelement. The strength of a bronchospasm can then be recorded as a percentage reduction of the available bronchial volume. The theoretically maximum possible bronchospasm is obtained by closing the respiration tube on the animal so that all of the air supplied flows off through the valve.
Every 30 seconds, the valve is closed for 8 seconds by a relay and the total volume is pumped into the lungs in order again to expand the bronchi and alveoli and thus to make possible a sufficient gas exchange. The percentage decrease of the available bronchial volume (X) is calculated according to the following equation: [formula] wherein a is the amplitude of the recorder in mm. at the commencement of the experiment, b is the height of the amplitude in mm. at a definite point of time and m is the maximum amplitude in mm. after closing the respiration tube on the animal.
The antigen is 2×crystallized ovalbumin. Equal amounts of a solution of the antigen in physiological sodium chloride solution and complete Freund's adjuvant are emulsified and injected intramuscularly in an amount of 2×0.15 ml. to male guinea pigs. The animals are bled and the pooled serum is stored at -20° C.
The compounds according to the present invention are administered intravenously 5 minutes before administration of the antigen.

COC(=O)c1ccccc1OCCCN1CCC(NC(=O)c2ccccc2)CC1 [Example 2a, methyl 2-[3-(4-benzamidopiperidino)-propoxy]-benzoate]
% inhibition Br Sp (dosage 3.0 mg/kg i.v.): 71%

NC(=O)c1ccccc1OCCCN1CCC(NC(=O)c2ccccc2)CC1 [Example 2b, 2-[3-(4-benzamidopiperidino)-propoxy]-benzamide]
% inhibition Br Sp (dosage 0.38 mg/kg i.v.): 67%

O=C(NC1CCN(CCCOc2ccccc2C(=O)O)CC1)c1ccccc1 [Example 7, 2-[3-(4-Benzamidopiperidino)-propoxy]-benzoic acid]
% inhibition Br Sp (dosage 1.5 mg/kg i.v.): 45%

O=C(NC1CCN(CCCOc2ccccc2-c2nnn[nH]2)CC1)c1ccccc1 [Example 9, 5-{2-[3-(4-Benzamidopiperidino)-propoxy]-phenyl}-1H-tetrazole]
% inhibition Br Sp (dosage 0.1 mg/kg i.v.): 56%

Cc1ccccc1C(=O)NC1CCN(CCCOc2ccccc2-c2nnn[nH]2)CC1 [Example 10g, 5-{2-{3-[4-(2-methylbenzamido)-piperidino]-propoxy}-phenyl}-1H-tetrazole]
% inhibition Br Sp (dosage 0.75 mg/kg i.v.): 71%

Cn1c(=O)c2[nH]cnc2n(C)c1=O [aminophylline, reference compound]
% inhibition Br Sp (dosage 24 mg/kg i.v.): 29%
